From US10517889B2, “Modulators of SMAD7 expression” (Ionis Pharmaceuticals, Inc., priority 2017, dated 2019)
Several values for one entry are separate records, joined by “and”; a condition that tells them apart may be missing. Identical values can stand only once. Strand notation (5' to 3'): a small letter for the sugar, then the base; units joined by * are phosphorothioate-linked, units joined directly phosphodiester-linked; [ ] holds rarer units or linkages, { } end groups; capitals alone tell only the bases. k = constrained ethyl (cEt); [5mC] = 5-methylcytosine; d = 2'-deoxy (DNA)

What was measured:
human SMAD7 mRNA [1] = experiment: Dose-dependent inhibition of human SMAD7 mRNA expression in Hep3B cells (Example 3, Study 1 and 2); type: cell-based; settings: electroporation; for % inhibition of SMAD7 mRNA expression: approximately 16 hours; for IC50: Study 2 (740-20000 nM)
Outline: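 Hep3B cells, 20,000 per well, electroporated with antisense oligonucleotide at 0.31, 1.25, 5.00 or 20.00 μM (first series) or 0.74, 2.22, 6.67 or 20.00 μM (second series). After ~16 h, SMAD7 mRNA measured by RT-qPCR (RTS5062), normalised to RIBOGREEN total RNA. Percent inhibition vs untreated cells; IC50 derived.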

human SMAD7 mRNA [2] = experiment: Antisense inhibition of human SMAD7 mRNA expression in Hep3B cells by 3-10-3 cEt gapmers, 10,000 nM, electroporation (Example 2); type: cell-based; settings: approximately 24 hours
Outline: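 Hep3B cells (20,000/well) were electroporated with 10,000 nM 3-10-3 cEt gapmer (16-mer, phosphorothioate, 5-methylcytosines) and harvested after about 24 h. SMAD7 mRNA quantified by RT-qPCR with primer probe set RTS5062, normalized to total RNA by RiboGreen; percent inhibition relative to untreated cells.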

[3] = 740 nM, Study 2, relative to untreated control cells
[4] = Hep3B cells, 10,000 nM antisense oligonucleotide, electroporation, RT-PCR primer probe set RTS5062, relative to untreated control cells
[5] = Hep3B cells, electroporation with 10,000 nM antisense oligonucleotide, SMAD7 mRNA by RT-PCR (RTS5062), relative to untreated control cells
[6] = SMAD7 mRNA, Hep3B cells, 10,000 nM antisense oligonucleotide, electroporation, primer probe set RTS5062, relative to untreated control cells
[7] = SMAD7 mRNA, Hep3B cells, electroporation with 10,000 nM antisense oligonucleotide, primer probe set RTS5062, relative to untreated control cells

Substance	% inhibition of SMAD7 mRNA expression (human SMAD7 mRNA [1]; [3]) [%]	% inhibition of SMAD7 mRNA expression (human SMAD7 mRNA [1]; 2220 nM, Study 2) [%]	% inhibition of SMAD7 mRNA expression (human SMAD7 mRNA [1]; 6670.0 nM, Study 2) [%]	% inhibition of SMAD7 mRNA expression (human SMAD7 mRNA [1]; 20000.0 nM, Study 2)	IC50 (human SMAD7 mRNA [1]) [µM]	% Inhibition (human SMAD7 mRNA [2]; [4]) [%]	% Inhibition (human SMAD7 mRNA [2]; [5]) [%]	% inhibition of SMAD7 mRNA expression (human SMAD7 mRNA [2]; Hep3B cells, electroporation with 10,000 nM antisense oligonucleotide, primer probe set RTS5062, relative to untreated control cells) [%]	% Inhibition (human SMAD7 mRNA [2]; [6]) [%]	% Inhibition (human SMAD7 mRNA [2]; [7]) [%]	% inhibition of SMAD7 mRNA expression (human SMAD7 mRNA [2]; Hep3B cells, electroporation, 10,000 nM, 3-10-3 cEt gapmers targeting SEQ ID NO: 3 and 4) [%]
800010 (kG*kT*kT*dA*dT*dT*dT*dA*dA*dT*dT*dA*d[5mC]*k[5mC]*k[5mC]*kT; antisense) [compound 800010]	33	13	47	59%	6	69	–	–	–	–	–
800025 (kA*kG*kT*dA*d[5mC]*dA*dA*dG*dG*dA*d[5mC]*dT*dA*kA*kG*kG; antisense) [compound 800025]	0	42	55	74%	6	–	65	–	–	–	–
800031 (kA*kG*kA*dA*dA*d[5mC]*dA*d[5mC]*dA*dG*dT*dT*d[5mC]*k[5mC]*k[5mC]*kT; antisense) [compound 800031]	10	39	57	69%	8	52	–	–	–	–	–
800048 (antisense kT*kG*kG*dA*dA*dA*dG*dG*dA*dA*dG*dA*d[5mC]*kT*k[5mC]*kG) [compound 800048]	0	31	58	58%	4	–	64	–	–	–	–
800066 (antisense kT*kG*kT*dT*dT*dT*dA*dA*dG*dT*dA*dG*d[5mC]*kA*kG*k[5mC]) [compound 800066]	7	42	62	82%	9	–	63	–	–	–	–
800109 (antisense kA*k[5mC]*kA*dG*d[5mC]*d[5mC]*dA*d[5mC]*dA*dA*dG*dT*d[5mC]*kA*k[5mC]*kA) [compound 800109]	–	–	–	71% and 67% and 93% and 97%	1	–	86	75	88	–	–
829734 (antisense kT*k[5mC]*k[5mC]*dG*d[5mC]*dA*d[5mC]*dA*d[5mC]*d[5mC]*dA*dT*dG*kA*kA*kG) [compound 829734]	20	40	69	68%	4	–	–	–	71	–	–
829762 (antisense k[5mC]*k[5mC]*kT*dT*d[5mC]*dA*dG*dA*dT*d[5mC]*d[5mC]*dG*d[5mC]*k[5mC]*kT*k[5mC]) [compound 829762]	27	41	59	78%	> 20	–	–	–	67	–	–
829767 (antisense kG*kG*kA*dG*dG*d[5mC]*dA*d[5mC]*dG*d[5mC]*dG*dG*dT*kG*k[5mC]*kG) [compound 829767]	5	6	36	49%	3	–	–	–	66	–	–
829776 (antisense kG*k[5mC]*kG*dA*dG*dT*dA*dG*dG*dA*d[5mC]*dG*dA*kG*kG*kG) [compound 829776]	26	40	66	81%	5	–	–	–	64	–	–
829864 (antisense kG*kG*kG*dT*dA*dA*d[5mC]*dT*dG*d[5mC]*dT*dG*d[5mC]*kG*kG*kT) [compound 829864]	0	33	67	76%	1	–	–	–	–	68	–
829942 (kG*k[5mC]*kA*dT*d[5mC]*dT*dG*dG*dA*d[5mC]*dA*dG*dT*k[5mC]*kA*kG; antisense) [compound 829942]	44	70	84	94%	< 0.7	–	–	–	–	–	92
829956 (k[5mC]*k[5mC]*kT*dT*dG*dT*d[5mC]*dA*d[5mC]*d[5mC]*d[5mC]*dG*dT*k[5mC]*kT*kG; antisense) [compound 829956]	65	82	89	95%	1	–	–	–	–	66	–
829980 (kT*kT*kG*dA*dT*dA*dT*dT*dT*dA*dG*d[5mC]*dT*kG*kT*k[5mC]; antisense) [compound 829980]	52	63	79	92%	3	–	–	–	–	56	–
829995 (kT*kG*kG*dA*dG*dG*d[5mC]*dA*dG*dG*dG*d[5mC]*d[5mC]*kG*k[5mC]*kG; antisense) [compound 829995]	36	74	76	84%	8	–	–	–	–	78	–
830010 (antisense kG*kT*k[5mC]*dT*d[5mC]*dA*dA*dA*dT*dG*dG*dG*d[5mC]*kT*kT*k[5mC]) [compound 830010]	0	12	52	72%	1	–	–	–	–	68	–
830028 (antisense k[5mC]*kA*kG*dT*d[5mC]*dA*dA*dG*dT*dT*dA*d[5mC]*dA*kG*kT*k[5mC]) [compound 830028]	54	70	85	93%	3	–	75	–	–	–	–
830044 (k[5mC]*kG*kA*dT*dT*dG*dG*d[5mC]*dA*dG*dG*dT*dT*kA*kA*kT; antisense) [compound 830044]	47	61	80	93%	10	–	60	–	–	–	–
830051 (kT*kA*kG*dT*dT*dT*d[5mC]*d[5mC]*dG*dA*dT*dT*dG*kG*k[5mC]*kA; antisense) [compound 830051]	0	18	42	67%	2	–	84	–	–	–	–
